Where “and” joins values, the source holds several entries; their conditions need not be identical. Equal values may be shown once. Read-outs that look alike come from different tables or passages of the source.
Tests used:
[1] = system: MCF-7 human breast carcinoma cells; test: MCF-7 cell growth inhibition; format: cell-based; settings: read-out: MCF-7 IC50 ± SD
[2] = system: tubulin; test: Inhibition of [3H]colchicine binding to tubulin; settings: for Colch. binding (% ± SD): inhibition of [3H]colchicine binding, tubulin, [3H]colchicine, inhibitor at 1, 5 and 5 μM
Protocol: The reaction mixtures contained 1.0 μM tubulin, 5.0 μM [^3H]colchicine, and 5.0 or 1.0 μM inhibitor, as indicated, and were incubated for 10 min at 37 °C. Complete details were described previously.[36]

[3] = system: tubulin; test: Inhibition of tubulin polymerization (tubulin assembly, turbidity at 350 nm); format: biochemical; settings: tubulin at 10 μM, read-out: Tubulin IC50 ± SD
Protocol: The assembly reaction mixtures contained 0.8 M monosodium glutamate (pH 6.6 with HCl in a 2 M stock solution), 10 μM tubulin, 4% (v/v) DMSO, and varying concentrations of drug. Following a 15 min preincubation at 30 °C, samples were chilled on ice, GTP to 0.4 mM was added, and turbidity development was followed at 350 nm in a temperature-controlled recording spectrophotometer for 20 min at 30 °C. The extent of reaction was measured. Full experimental details were previously described.[35]

[4] = Homo sapiens, MCF7, cells grown for 96 h
[5] = Homo sapiens, MCF7, 96 h, cells grown for 96 h

Row | Structure (SMILES) | IC50 [1, 4] [nM] | Colch. binding (% ± SD) [2] | IC50 [3] [nM] | IC50 [1, 5] [nM] | IC50 ([1]; cells grown for 96 h) [nM] | Inhibition of [3H]colchicine binding ([2]; inhibitor at 1 μM, tubulin 1 μM, [3H]colchicine 5 μM) [%]
1 | COc1cc(C(=O)c2cn(-c3ncccn3)cc2/C=C/c2ccccc2)cc(OC)c1OC [Compound 23, (E)-(1-(pyrimidin-2-yl)-4-styryl-1H-pyrrol-3-yl)(3,4,5-trimethoxyphenyl)methanone] | 270 ± 10 | 65 ± 5% | 770 ± 30 |  |  | 
2 | COc1cc(C(=O)c2cn(-c3ccccn3)cc2-c2ccc(N(C)C)cc2)cc(OC)c1OC [Compound 7, (4-(4-(Dimethylamino)phenyl)-1-(pyridin-2-yl)-1H-pyrrol-3-yl)(3,4,5-trimethoxyphenyl)methanone] | 120 ± 40 | 72% and 72 ± 0.2% | 430 ± 40 |  |  | 
3 | COc1cc(C(=O)c2cn(-c3cccnc3)cc2-c2ccc(Cl)cc2)cc(OC)c1OC [Compound 11, (4-(4-Chlorophenyl)-1-(pyridin-3-yl)-1H-pyrrol-3-yl)(3,4,5-trimethoxyphenyl)methanone] | 1500 ± 400 | 29 ± 4% | 1500 ± 200 |  |  | 
4 | COc1cc(OC)cc(-c2cn(-c3ccccn3)cc2C(=O)c2cc(OC)c(OC)c(OC)c2)c1 [Compound 8, (4-(3,5-Dimethoxyphenyl)-1-(pyridin-2-yl)-1H-pyrrol-3-yl)(3,4,5-trimethoxyphenyl)methanone] | 2200 ± 400 | 21 ± 5% | 1600 ± 200 |  |  | 
5 | COc1cc(C(=O)c2cn(-c3ccccn3)cc2-c2ccc(C)cc2)cc(OC)c1OC [Compound 3, (1-(Pyridin-2-yl)-4-(4-tolyl)-1H-pyrrol-3-yl)(3,4,5-trimethoxyphenyl)methanone] | 1500 ± 200 | 59 ± 0.9% | 500 ± 100 |  |  | 
6 | COc1cc(C(=O)c2cn(-c3ncccn3)cc2-c2ccc(Cl)cc2)cc(OC)c1OC [Compound 20, (4-(4-Chlorophenyl)-1-(pyrimidin-2-yl)-1H-pyrrol-3-yl)(3,4,5-trimethoxyphenyl)methanone] |  | 69 ± 4% | 760 ± 100 | 68 ± 10 |  | 
7 | COc1ccc(-c2cn(-c3cccnc3)cc2C(=O)c2cc(OC)c(OC)c(OC)c2)cc1 [Compound 10, (4-(4-Methoxyphenyl)-1-(pyridin-3-yl)-1H-pyrrol-3-yl)(3,4,5-trimethoxyphenyl)methanone] | 758 ± 9.3 | 29 ± 0.8% | 840 ± 20 |  |  | 
8 | COc1cc(C(=O)c2cn(-c3ncccn3)cc2-c2ccc(C(F)(F)F)cc2)cc(OC)c1OC [Compound 19, (1-(Pyrimidin-2-yl)-4-(4-(trifluoromethyl)phenyl)-1H-pyrrol-3-yl)(3,4,5-trimethoxyphenyl)methanone] | 530 | 18 ± 4% | 2800 ± 100 |  |  | 
9 | COc1cc(C(=O)c2cn(-c3cccnc3)cc2-c2ccc(C)cc2)cc(OC)c1OC [Compound 9, (1-(Pyridin-3-yl)-4-(4-tolyl)-1H-pyrrol-3-yl)(3,4,5-trimethoxyphenyl)methanone] | 670 ± 200 | 20 ± 5% | 1900 ± 200 |  |  | 
10 | COc1cc(C(=O)c2cn(-c3ncccn3)c3ccc(C#N)cc23)cc(OC)c1OC [Compound 29, 1-(Pyrimidin-2-yl)-3-(3,4,5-trimethoxybenzoyl)-1H-indole-5-carbonitrile] |  | 42 ± 5% | 1300 ± 70 | 230 ± 7 |  | 
11 | COc1cc(C(=O)c2cn(-c3ccccn3)c3ccc(Cl)cc23)cc(OC)c1OC [Compound 25, (5-Chloro-1-(pyridin-2-yl)-1H-indol-3-yl)(3,4,5-trimethoxyphenyl)methanone] |  | 36 ± 4% | 1500 ± 300 | 42 | 41.7 ± 2.6 | 
12 | COc1ccc(/C=C\c2cc(OC)c(OC)c(OC)c2)cc1O [CA4, combretastatin A-4, reference compound] |  |  |  |  |  | 78
13 | COc1cc(C(=O)c2cn(-c3ncccn3)c3ccc(Cl)cc23)cc(OC)c1OC [Compound 27, (5-Chloro-1-(pyrimidin-2-yl)-1H-indol-3-yl)(3,4,5-trimethoxyphenyl)methanone] |  | 34 ± 5% | 1000 ± 90 | 77 ± 10 |  | 
14 | COc1cc(OC)cc(-c2cn(-c3ncccn3)cc2C(=O)c2cc(OC)c(OC)c(OC)c2)c1 [Compound 16, (4-(3,5-Dimethoxyphenyl)-1-(pyrimidin-2-yl)-1H-pyrrol-3-yl)(3,4,5-trimethoxyphenyl)methanone] | 780 ± 40 | 25 ± 5% | 1100 ± 60 |  |  | 
15 | COc1cc(C(=O)c2cn(-c3ncccn3)cc2-c2cc(OC)c(OC)c(OC)c2)cc(OC)c1OC [Compound 17, (1-(Pyrimidin-2-yl)-4-(3,4,5-trimethoxyphenyl)-1H-pyrrol-3-yl)(3,4,5-trimethoxyphenyl)methanone] | > 5000 |  | > 20000 |  |  | 
16 | COc1cc(C(=O)c2cn(-c3ccccn3)cc2-c2ccc(Cl)cc2)cc(OC)c1OC [Compound 6, (4-(4-Chlorophenyl)-1-(pyridin-2-yl)-1H-pyrrol-3-yl)(3,4,5-trimethoxyphenyl)methanone] | 340 ± 60 | 66 ± 3% | 520 ± 5 |  |  | 
17 | COc1cc(C(=O)c2cn(-c3ncccn3)c3ccc(F)cc23)cc(OC)c1OC [Compound 28, (5-Fluoro-1-(pyrimidin-2-yl)-1H-indol-3-yl)(3,4,5-trimethoxyphenyl)methanone] |  | 45 ± 0.8% | 590 ± 100 | 73 ± 4 |  | 
18 | COc1cc(C(=O)c2cn(-c3ccccn3)cc2-c2ccc(C(F)(F)F)cc2)cc(OC)c1OC [Compound 5, (1-(Pyridin-2-yl)-4-(4-(trifluoromethyl)phenyl)-1H-pyrrol-3-yl)(3,4,5-trimethoxyphenyl)methanone] | 652 ± 12.6 | 3.2 ± 5% | 2000 ± 100 |  |  | 
19 | COc1cc(C(=O)c2cn(-c3ncccn3)cc2-c2ccc(C)cc2)cc(OC)c1OC [Compound 14, (1-(Pyrimidin-2-yl)-4-(4-tolyl)-1H-pyrrol-3-yl)(3,4,5-trimethoxyphenyl)methanone] | 170 ± 50 | 54 ± 3% | 1300 ± 40 |  |  | 
20 | COc1cc(C(=O)c2cn(-c3ncccn3)cc2-c2ccc(N(C)C)cc2)cc(OC)c1OC [Compound 22, (4-(4-(Dimethylamino)phenyl)-1-(pyrimidin-2-yl)-1H-pyrrol-3-yl)(3,4,5-trimethoxyphenyl)methanone] | 10 | 80 ± 0.2% | 680 ± 100 |  |  | 
21 | COc1cc(C(=O)c2cn(-c3ncccn3)cc2-c2ccc(N3CCCCC3)cc2)cc(OC)c1OC [Compound 24, (4-(4-(Piperidin-1-yl)phenyl)-1-(pyrimidin-2-yl)-1H-pyrrol-3-yl)(3,4,5-trimethoxyphenyl)methanone] | 112 ± 7.7 | 35 ± 2% | 630 ± 40 |  |  | 
22 | COc1ccc2c(c1)c(C(=O)c1cc(OC)c(OC)c(OC)c1)cn2-c1ncccn1 [Compound 30, (5-Methoxy-1-(pyrimidin-2-yl)-1H-indol-3-yl)(3,4,5-trimethoxyphenyl)methanone] |  | 71% and 71 ± 5% | 380 ± 40 | 220 ± 60 |  | 
23 | COc1cc(C(=O)c2cn(-c3cccnc3)cc2-c2ccc(C(F)(F)F)cc2)cc(OC)c1OC [Compound 12, (1-(Pyridin-3-yl)-4-(4-(trifluoromethyl)phenyl)-1H-pyrrol-3-yl)(3,4,5-trimethoxyphenyl)methanone] | 3900 ± 70 |  | > 20000 |  |  | 
